In patent US9969710B2, “Heteroaryl compounds as IRAK inhibitors and uses thereof” (Merck Patent GmbH, priority 2015, dated 2018):

Tests used:
[1] = tested on: TLR7 induced IL-6 secretion in human mononuclear cells (PBMC's); assay: TLR7 induced IL-6 in human PBMC's; assay type: cell-based; details: TLR7 specific ligand 2 uM overnight, IL-6 AlphaLISA
Procedure: TLR7 Induced IL-6 in Human PBMC's
Human PBMC assay was used as one of the functional assaya to monitor the activity of IRAK1 and IRAK4 small molecule inhibitors on TLR7 induced IL-6 secretion in human mononuclear cells (PBMC's). Human PBMCs were prepared from buffy coats (whole blood enriched with leukocytes and platelets) obtained from healthy volunteers used either fresh or frozen are plated in assay media (RPMI+2% P/S/L-glu+10% HI-FBS) and pre-treated with compounds in DMSO/media (range of concentrations from 25 uM to 0.4 nM) or controls (0.25% DMSO) for 30 minutes at 37° C. in assay media. Following pre-treatment with IRAK1 and IRAK4 inhibitors, PBMC's were stimulated with TLR7 specific ligand (2 uM) overnight (16-18 hrs) at 37° C. After incubation supernatant was transferred to 384 well PE AlphaPlate-384 (6005350) and IL-6 is quantified using Perkin Elmer IL-6 Alpha LISA kit (AL223C). Plates were read on an Envision® plate reader with Alpha Technology®.

[2] = target: T1, IRAK1 (Homo sapiens, UniProt P51617); assay: IRAK1 enzymatic assay (ADP-Glo luminescence); assay type: biochemical; details: human recombinant His-TEV-IRAK1 (194-712), ATP 1 μM; read-out: IRAK 1 IC50
T1 construct: His-TEV-IRAK1 (194-712); His (N); TEV cleavage site (N)
Procedure: IRAK1 is a human purified recombinant enzyme (His-TEV-IRAK1 (194-712))
In this assay, IRAK1 hydrolyses ATP and autophosphorylates. Measurement of IRAK-1 inhibition is performed in 384-well format based on luminescence assay (ADP-Glo™ Kinase Assay from Promega). Purified human recombinant IRAK1 ([…]) and serial diluted compounds in DMSO (range of concentration from 10 μM to 0.5 nM) or controls (1% DMSO) are incubated for 15 minutes at RT in assay buffer containing 50 mM Hepes pH 7.0, Fatty acid-free BSA 0.1%, Dithiothreitol (DTT) 2 mM, MgCl2 10 mM, EGTA 0.5 mM, Triton X-100 0.01%. The kinase reaction is then initiated by the addition of ATP at a concentration of 1 μM. After 2 hours of incubation at RT, the reaction is stopped and the unconsumed ATP depleted by the addition of ADP-Glo™ Reagent according to supplier instructions. After 40 minutes of incubation at RT, the Kinase Detection Reagent is then added to the assay plate according to supplier instructions. After 20 minutes of incubation at RT, the luminescence signal is measured with a luminometer (PerkinElmer Envision or equivalent reader).

[3] = target: T2, IRAK4 (Homo sapiens, UniProt Q9NWZ3); assay: IRAK4 enzymatic assay (ADP-Glo luminescence); assay type: biochemical; details: human recombinant His-TEV-IRAK4 (1-460), STK1-biotin peptide substrate
T2 construct: His-TEV-IRAK4 (1-460); His (N); TEV cleavage site (N)
T2 sequence (Q9NWZ3 1-460): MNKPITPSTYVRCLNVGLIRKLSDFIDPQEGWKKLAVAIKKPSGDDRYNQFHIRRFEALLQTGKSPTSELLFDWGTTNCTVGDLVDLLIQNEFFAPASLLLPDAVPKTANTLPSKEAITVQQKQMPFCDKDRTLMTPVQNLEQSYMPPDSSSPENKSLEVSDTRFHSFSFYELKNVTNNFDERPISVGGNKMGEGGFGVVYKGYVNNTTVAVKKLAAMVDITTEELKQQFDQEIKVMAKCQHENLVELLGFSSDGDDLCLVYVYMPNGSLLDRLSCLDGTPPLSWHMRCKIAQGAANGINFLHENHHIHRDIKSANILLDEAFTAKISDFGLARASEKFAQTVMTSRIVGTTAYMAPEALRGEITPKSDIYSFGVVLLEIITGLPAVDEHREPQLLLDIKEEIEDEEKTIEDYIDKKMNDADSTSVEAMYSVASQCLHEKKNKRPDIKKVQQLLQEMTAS
Procedure: IRAK4 is a human purified recombinant enzyme (His-TEV-IRAK4 (1-460)).
In this assay, IRAK4 hydrolyses ATP, autophosphorylates and phosphorylates a Serine/Threonine generic peptidic substrate (STK: 61ST1BLC from CisBio International). Measurement of IRAK-4 inhibition is performed in 384-well format based on a luminescence assay (ADP-Glo™ Kinase Assay from Promega). Purified human recombinant IRAK4 ([…]) and serial diluted compounds in DMSO (range of concentration from 10 μM to 0.5 nM) or controls (1% DMSO) are incubated for 15 minutes at RT in assay buffer containing 50 mM Hepes pH 7.0, Fatty acid-free BSA 0.1%, Dithiothreitol (DTT) 2 mM, MgCl2 10 mM, EGTA 0.5 mM, Triton X-100 0.01%, MnCl2 5 mM. The kinase reaction is then initiated by the addition of ATP ([…]) and the peptidic substrate STK1-biotin peptide (300 nM). After 2 hours of incubation at RT, the reaction is stopped and the unconsumed ATP depleted by the addition of ADP-Glo™ Reagent according to supplier instructions. After 40 minutes of incubation at RT, the Kinase Detection Reagent is then added to the assay plate according to supplier instructions. After 20 minutes of incubation at RT, the luminescence signal is measured with a plate-reading luminometer (PerkinElmer Envision or equivalent reader).

T1 sequence (P51617 194-712): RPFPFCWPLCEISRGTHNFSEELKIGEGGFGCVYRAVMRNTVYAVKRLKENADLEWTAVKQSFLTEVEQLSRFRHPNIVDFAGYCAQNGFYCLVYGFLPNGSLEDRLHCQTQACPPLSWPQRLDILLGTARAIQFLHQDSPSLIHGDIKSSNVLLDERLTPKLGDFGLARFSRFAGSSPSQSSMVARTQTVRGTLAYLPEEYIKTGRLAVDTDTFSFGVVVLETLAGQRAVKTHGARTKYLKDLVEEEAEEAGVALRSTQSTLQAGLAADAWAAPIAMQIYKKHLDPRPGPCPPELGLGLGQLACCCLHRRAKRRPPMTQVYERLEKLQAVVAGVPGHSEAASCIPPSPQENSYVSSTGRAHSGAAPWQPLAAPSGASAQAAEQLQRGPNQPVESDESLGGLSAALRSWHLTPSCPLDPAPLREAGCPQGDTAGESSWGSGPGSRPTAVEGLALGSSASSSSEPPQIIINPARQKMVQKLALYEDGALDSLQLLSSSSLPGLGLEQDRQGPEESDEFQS

Row | Structure (SMILES) | IC50 ([1]; Homo sapiens, PBMC) | IC50 [2] | IC50 [3] | IC50 [1]
1 | CN1CCC[C@@H](c2ccc3c(c2)[nH]/c(=N\C(=O)c2cccc(C(F)F)c2)n3C[C@](C)(F)CO)C1=O (single isomer, unassigned) [Compound 3b] | 0.1 to 1 µM | 1 to 10 µM | ≤ 0.1 µM | –
2 | CN1CCC[C@H](c2ccc3c(c2)[nH]/c(=N\C(=O)c2cccc(C(F)F)c2)n3C[C@](C)(F)CO)C1=O (single isomer, unassigned) [Compound 3c] | ≤ 0.1 µM | 0.1 to 1 µM | ≤ 0.1 µM | –
3 | CN1CCC(c2ccc3c(c2)[nH]/c(=N\C(=O)c2cccc(C(F)(F)F)c2)n3CC(O)CO)C1=O (single isomer, unassigned) [Compound 20a] | – | 0.1 to 1 µM | ≤ 0.1 µM | 0.1 to 1 µM
4 | CN1CCC(c2ccc3c(c2)[nH]/c(=N\C(=O)c2cccc(C(F)(F)F)c2)n3CC(O)CO)C1=O (single isomer, unassigned) [Compound 20b] | – | 0.1 to 1 µM | ≤ 0.1 µM | 1 to 10 µM
5 | CN1CCC(c2ccc3c(c2)[nH]/c(=N\C(=O)c2cccc(C(F)(F)F)c2)n3CCC(O)CO)C1=O (single isomer, unassigned) [Compound 21a] | 0.1 to 1 µM | 0.1 to 1 µM | ≤ 0.1 µM | –
6 | CN1CCC(c2ccc3c(c2)[nH]/c(=N\C(=O)c2cccc(C(F)(F)F)c2)n3CCC(O)CO)C1=O (single isomer, unassigned) [Compound 21b] | – | 0.1 to 1 µM | ≤ 0.1 µM | 0.1 to 1 µM
7 | CN1CCC(c2ccc3c(c2)[nH]/c(=N\C(=O)c2cccc(C(F)(F)F)c2)n3CCC(O)CO)C1=O (single isomer, unassigned) [Compound 21c] | – | 0.1 to 1 µM | ≤ 0.1 µM | ≤ 0.1 µM
8 | CN1CCC(c2ccc3c(c2)[nH]/c(=N\C(=O)c2cccc(C(F)(F)F)c2)n3CCC(O)CO)C1=O (single isomer, unassigned) [Compound 21d] | – | ≤ 0.1 µM | ≤ 0.1 µM | 0.1 to 1 µM
9 | CN1CCCC(c2ccc3c(c2)[nH]/c(=N\C(=O)c2cccc(C(F)(F)F)c2)n3CCC(O)CO)C1=O (single isomer, unassigned) [Compound 22a] | – | 0.1 to 1 µM | ≤ 0.1 µM | ≤ 0.1 µM
10 | CN1CCCC(c2ccc3c(c2)[nH]/c(=N\C(=O)c2cccc(C(F)(F)F)c2)n3CCC(O)CO)C1=O (single isomer, unassigned) [Compound 22b] | – | ≤ 0.1 µM | ≤ 0.1 µM | ≤ 0.1 µM
11 | CN1CCCC(c2ccc3c(c2)[nH]/c(=N\C(=O)c2cccc(C(F)(F)F)c2)n3CCC(O)CO)C1=O (single isomer, unassigned) [Compound 22c] | – | 0.1 to 1 µM | ≤ 0.1 µM | 1 to 10 µM
12 | CN1CCCC(c2ccc3c(c2)[nH]/c(=N\C(=O)c2cccc(C(F)(F)F)c2)n3CCC(O)CO)C1=O (single isomer, unassigned) [Compound 22d] | – | 0.1 to 1 µM | ≤ 0.1 µM | 0.1 to 1 µM
13 | CN1CCC(c2ccc3c(c2)nc(NC(=O)c2cccc(C(F)(F)F)c2)n3CCCO)C1=O (single isomer, unassigned) [Compound 23a] | ≤ 0.1 µM | 0.1 to 1 µM | ≤ 0.1 µM | –
14 | CN1CC(c2ccc3c(c2)nc(NC(=O)c2cccc(C(F)(F)F)c2)n3CCCO)C(C)(C)C1=O (single isomer, unassigned) [Compound 25a] | 0.1 to 1 µM | ≤ 0.1 µM | ≤ 0.1 µM | –
15 | CN1CC(c2ccc3c(c2)nc(NC(=O)c2cccc(C(F)F)c2)n3CCCO)C(C)(C)C1=O (single isomer, unassigned) [Compound 27a] | 0.1 to 1 µM | ≤ 0.1 µM | ≤ 0.1 µM | –
16 | CN1CC(c2ccc3c(c2)nc(NC(=O)c2cccc(C(F)F)c2)n3CCCO)C(C)(C)C1=O (single isomer, unassigned) [Compound 27b] | – | 0.1 to 1 µM | ≤ 0.1 µM | 0.1 to 1 µM
17 | CN1CCC(C)(c2ccc3c(c2)nc(NC(=O)c2cccc(C(F)(F)F)c2)n3CCCO)C1=O (single isomer, unassigned) [Compound 29a] | – | 1 to 10 µM | ≤ 0.1 µM | 1 to 10 µM
18 | CN1CCC(C)(c2ccc3c(c2)nc(NC(=O)c2cccc(C(F)(F)F)c2)n3CCCO)C1=O (single isomer, unassigned) [Compound 29b] | – | 0.1 to 1 µM | ≤ 0.1 µM | 0.1 to 1 µM
19 | CN1CCCC(c2ccc3c(c2)[nH]/c(=N\C(=O)c2cccc(C(F)F)c2)n3C[C@](C)(F)CO)C1=O (stereo partly drawn) [Compound 2a, (E)-3-(difluoromethyl)-N-(1-((S)-2-fluoro-3-hydroxy-2-methylpropyl)-5-(1-methyl-2-oxopiperidin-3-yl)-1H-benzo[d]imidazol-2(3H)-ylidene)benzamide] | – | 0.1 to 1 µM | ≤ 0.1 µM | –
20 | Cn1cccc(-c2ccc3c(c2)[nH]/c(=N\C(=O)c2cccc(C(F)(F)F)c2)n3CCCO)c1=O [Compound 4, (E)-N-(1-(3-hydroxypropyl)-5-(1-methyl-2-oxo-1,2-dihydropyridin-3-yl)-1H-benzo[d]imidazol-2(3H)-ylidene)-3-(trifluoromethyl)benzamide] | – | 0.1 to 1 µM | ≤ 0.1 µM | –
21 | Cc1ccn(C)c(=O)c1-c1ccc2c(c1)[nH]/c(=N\C(=O)c1cccc(C(F)(F)F)c1)n2CCCO [Compound 6, (E)-N-(5-(1,4-dimethyl-2-oxo-1,2-dihydropyridin-3-yl)-1-(3-hydroxypropyl)-1H-benzo[d]imidazol-2(3H)-ylidene)-3-(trifluoromethyl)benzamide] | – | 0.1 to 1 µM | ≤ 0.1 µM | –
22 | O=C(/N=c1\[nH]c2cc(C3CCCCC3=O)ccc2n1CCCO)c1cccc(C(F)(F)F)c1 (stereo not drawn) [Compound 8, (E)-N-(1-(3-hydroxypropyl)-5-(2-oxocyclohexyl)-1H-benzo[d]imidazol-2(3H)-ylidene)-3-(trifluoromethyl)benzamide] | – | ≤ 0.1 µM | ≤ 0.1 µM | –
23 | O=C1C=C(c2ccc3c(c2)[nH]/c(=N\C(=O)c2cccc(C(F)(F)F)c2)n3CCCO)CO1 [Compound 9, (E)-N-(1-(3-hydroxypropyl)-5-(5-oxo-2,5-dihydrofuran-3-yl)-1H-benzo[d]imidazol-2(3H)-ylidene)-3-(trifluoromethyl)benzamide] | – | 0.1 to 1 µM | ≤ 0.1 µM | –
24 | O=C(/N=c1\[nH]c2cc(C3(O)COC3)ccc2n1CCCO)c1cccc(C(F)(F)F)c1 [Compound 11, (E)-N-(5-(3-hydroxyoxetan-3-yl)-1-(3-hydroxypropyl)-1H-benzo[d]imidazol-2(3H)-ylidene)-3-(trifluoromethyl)benzamide] | – | 1 to 10 µM | ≤ 0.1 µM | –
